Measurements from patent EP4567103A1, “USE OF PYRUVATE FOR POTENTIATING NK CELLS” (LVMH Recherche, priority 2023, dated 2025).

Key:
NK cells [1] = test: Cytotoxicity of NK cells against K562 NanoLuc-expressing target cells (bioluminescence lysis assay); assay type: cell-based; conditions: Homo sapiens; pyruvate 0.01 to 10 mM for 3 hours, then co-cultured for 4 hours with K562 NanoLuc-expressing target cells; read-out: EC50 for the cytotoxicity of the NK cells (the pyruvate concentration at which the cytotoxicity is half-maximal)
Description: (§1) Peripheral blood samples from healthy subjects were obtained from the French blood bank (Etablissement Français du sang, Lyon, France).
(§2) Human PBMCs were separated from peripheral blood by Ficoll® gradient centrifugation (Eurobio Laboratoires & AbCys) at room temperature. The PBMCs were kept at 4°C in complete medium overnight.
NK cells (CD56^Dim CD3) were isolated using an NK Cell Isolation Kit (Miltenyi Biotec) following the manufacturer's instructions, and then sorted (BD FACS ARIA II, purity > 99%, the following mAbs from eBioscience, BD Biosciences, Biolegend or Cell Signalling Technology were used: anti-CD56 (NCAM16.2), and anti-CD3 (UCHT1)). […]
NK cells were prepared as in Example 1, and were cultured in the absence or in the presence of pyruvate at varying concentrations (0.01 to 10 mM) for 3 hours and then co-cultured for 4 hours with K562 NanoLuc®-expressing target cells. The supernatant was collected and bioluminescence was measured using a Tristar Instrument luminometer (Berthold) after addition of Furimazin (the substrate of NanoLuc). The percentage of cell lysis were calculated as explained in Hayek, S. et al., SLAS Discov. […]

NK cells [2] = test: Intracellular ATP concentration in NK cells, luciferase-based assay (CellTiter-Glo 2.0); assay type: cell-based; conditions: Homo sapiens; isolated NK cells, 30,000 cells per well, pyruvate 0.01 to 10mM, 4 hours; read-out: EC50 for the intracellular ATP production (the pyruvate concentration at which the ATP production is half-maximal)
Description: as §1, §2
NK cells (CD56^Dim CD3) were isolated using an NK Cell Isolation Kit (Miltenyi Biotec) following the manufacturer's instructions, and then sorted (BD FACS ARIA II, purity > 99%, the following mAbs from eBioscience, BD Biosciences, Biolegend or Cell Signalling Technology were used: anti-CD56 (NCAM16.2), and anti-CD3 (UCHT1)). Freshly sorted NK cells were left to recover from the sorting overnight at 37°C with a non-activating dose of IL-15 (1 ng/ml, Peprotech) in RPMI 1640 medium additionally containing 10% FBS, 2mM HEPES, 2mM glutamine, 1mM pyruvate (sodium pyruvate) and 1% penicillin/streptomycin (HCL Technologies). […]
The intracellular ATP concentration at each concentration of pyruvate was measured using a luciferase-based assay following the manufacturer's instructions (CellTiter-Glo® 2.0 Cell Viability Assay and NAD/NADH-Glo Assay, Promega Corporation, Madison, WI). Luminescence was measured using a Tristar luminometer (Berthold).

Compound: CC(=O)C(=O)O [pyruvate]
- EC50 (NK cells [1]): 260 µM
- EC50 (NK cells [2]): 500 µM
